One assay has as its system Hela cell line. The experiment in a line: MTT cytotoxicity assay, Hela. The format is cell-based. Particulars: MTT method, mean ± SD, n = 3. How it is done: (§1) The MTT method optimized by Mosmann et al. was performed in vitro to test the cytotoxic activity of compounds 1–6. Adriamycin was used as a positive control and the medium without the test compound was used as a negative control in the bioassay.
A general note: Tetrazolium assays rely on reduction of a dye to a coloured formazan, in cell work by metabolically active cells.

For a further assay, the system named is K562 cell line. As to the kind of experiment: MTT cytotoxicity assay, K562. Particulars: MTT method, mean ± SD, n = 3. The format is cell-based. How it is done: as §1
The target of another assay is α-glycosidase. As to the kind of experiment: α-glycosidase inhibitory activity assay. The format is biochemical. Particulars: α-glycosidase inhibition in vitro; mean ± SD, n = 3. How it is done: The method optimized by Jong et al. was performed in vitro to test the α-glucosidase inhibitory activity of compounds 1–5. Acarbose was used as positive control.
Another assay relates to SGC-7901 cell line. As to the kind of experiment: MTT cytotoxicity assay, SGC-7901. It is filed as cell-based. The note with it: MTT method, mean ± SD, n = 3. How it is done:
as §1

The next assay deals with BEL-7042 cell line. The experiment in a line: MTT cytotoxicity assay, BEL-7042. The note with it: MTT method, mean ± SD, n = 3. It is filed as cell-based. The method, then: as §1
Setting [1] is: Homo sapiens, K562, cytotoxicity.
[2] abbreviates: Homo sapiens, SGC-7901, cytotoxicity.

`C/C=C/c1cc(=O)c2c(C)cc(O)cc2o1` [Compound 3, clapone]: the IC50 (commonly the concentration that inhibits the measured activity by half) is greater than 50 µM in the assay on Hela cell line (Homo sapiens); greater than 50 µM with K562 cell line (setting [1]); greater than 500 µM on α-glycosidase; greater than 50 µM in the assay with SGC-7901 cell line (setting [2]); greater than 50 µM in the assay with BEL-7042 cell line.

For `CCC(C)C=C(C)C1C(C)=CC2(C)CC(C)CCC2C1C(=O)C1C(=O)NC(=O)C1Cc1ccc(O)cc1` (stereo not drawn) [Compound 2, cladosporitin B], the IC50 in the assay with Hela cell line was greater than 50 µM; with K562 cell line (cytotoxicity), 25.6 ± 0.47 µM; at α-glycosidase, greater than 500 µM; with SGC-7901 cell line (cytotoxicity), 41.7 ± 0.71 µM; in the assay on BEL-7042 cell line, 29.4 ± 0.35 µM.

Regarding “1,3,6-trihydroxy-7-(1-hydroxyethyl) anthracene-9,10-dione [Compound 5]”, the IC50 in the assay with Hela cell line was greater than 50 µM; in the assay on K562 cell line (cytotoxicity), greater than 50 µM; on α-glycosidase, 49.3 ± 10.6 µM; in the assay with SGC-7901 cell line (cytotoxicity), greater than 50 µM; with BEL-7042 cell line it was greater than 50 µM.

Turning to `C[C@H]1O[C@H](O[C@H]2[C@H](O)[C@@H](O)[C@@H](O[C@H]3[C@H](O)[C@@H](O)C(O)O[C@@H]3CO)O[C@@H]2CO)[C@H](O)[C@@H](O)[C@@H]1N[C@H]1C=C(CO)[C@@H](O)[C@H](O)[C@H]1O` (stereo partly drawn) [Acarbose, reference compound], the IC50 against α-glycosidase came to 275.7 ± 2.7 µM.

In the case of `CCC(C)C=C(C)C1C(C)=CC2(C)CC(C)CCC2C1C(=O)C1C(=O)NC(=O)C1Cc1ccc(O)cc1` (stereo not drawn) [Compound 1, cladosporitin A], the concentration for half-maximal inhibition (IC50) in the assay on Hela cell line (Homo sapiens) was greater than 50 µM; in the assay on K562 cell line (setting [1]), greater than 50 µM; against α-glycosidase, greater than 500 µM; with SGC-7901 cell line (setting [2]) it was greater than 50 µM; in the assay with BEL-7042 cell line it was greater than 50 µM.

For the compound `CCC(C)/C=C(\C)[C@H]1C(C)=C[C@@]2(C)C[C@@H](C)CC[C@@H]2[C@H]1C(=O)C1=C/C(=C/c2ccc(O)cc2)NC1=O` (stereo partly drawn) [Compound 4, talaroconvolutin A], the half-maximal inhibitory concentration (IC50) in the assay on Hela cell line (Homo sapiens) is 14.9 ± 0.21 µM; in the assay with K562 cell line (setting [1]), greater than 50 µM; against α-glycosidase, 78.2 ± 2.1 µM; in the assay with SGC-7901 cell line (setting [2]), greater than 50 µM; in the assay on BEL-7042 cell line, 26.7 ± 1.1 µM.

With `COc1cccc2c1C(=O)c1c(O)c3c(c(O)c1C2=O)C[C@@](O)(C(=O)CO)C[C@@H]3O[C@H]1C[C@H](N)[C@H](O)[C@H](C)O1` [Adriamycin, reference compound], the IC50 in the assay on Hela cell line (Homo sapiens) was 11.5 ± 0.18 µM; in the assay with K562 cell line (setting [1]), 14.2 ± 0.66 µM; in the assay with SGC-7901 cell line (setting [2]), 6.66 ± 0.2 µM; with BEL-7042 cell line, 11.9 ± 0.37 µM.

(Values after PMC6356855, “Two New Succinimide Derivatives Cladosporitins A and B from the Mangrove-derived Fungus Cladosporium sp. HNWSW-1” (Marine Drugs, 2018).)
